This passage reports CC50 results from ChEMBL document CHEMBL4118188, “A small diversity library of α-methyl amide analogs of sulindac for probing anticancer structure-activity relationships” (Bioorg Med Chem Lett, 2018).

Holding throughout (format): functional
One experiment deals with HT-29. The experiment is described as follows: Growth inhibition of human HT-29 cells measured after 72 hrs by Celltiter-Glo reagent based assay. Particulars: HT-29, 72 h.
In a further experiment the test system is PC-3. The experiment is described as follows: Growth inhibition of human PC3 cells measured after 72 hrs by Celltiter-Glo reagent based assay. The settings on record: PC-3, 72 h.
The test system of the next experiment is MDA-MB-231. The experiment is described as follows: Growth inhibition of human MDA-MB-231 cells measured after 96 hrs by Celltiter-Glo reagent based assay. The settings on record: MDA-MB-231, 96 h.

For `CCN1CCC[C@H]1CNC(=O)C(C)C1=C(C)/C(=C/c2ccc(SC)cc2)c2ccc(F)cc21` (some centres not stated), the CC50 in the experiment on HT-29 was found to be 1.1 µM; in the experiment with PC-3 it was 4.24 µM; in the experiment with MDA-MB-231, 3.49 µM.

As to `CCN(CC)CCN(C)C(=O)C(C)C1=C(C)/C(=C/c2ccc([S+](C)[O-])cc2)c2ccc(F)cc21` (configuration not stated), the CC50 with HT-29 was 5.83 µM; with PC-3, 29.3 µM; in the experiment with MDA-MB-231 it was more than 50 µM.

With `CSc1ccc(/C=C2/C(C)=C(C(C)C(=O)N3CCC(N4CCCCC4)CC3)c3cc(F)ccc32)cc1` (configuration not stated), the CC50 with HT-29 was 1.89 µM; in the experiment with PC-3, 4.36 µM; with MDA-MB-231, 4.3 µM.

`CSc1ccc(/C=C2/C(C)=C(C(C)C(=O)NCc3ccccc3)c3cc(F)ccc32)cc1` (configuration not stated): the CC50 in the experiment on HT-29 was 22.9 µM; in the experiment with PC-3, more than 50 µM; with MDA-MB-231, more than 50 µM.

Take `CCN1CCC[C@H]1CNC(=O)C(C)C1=C(C)/C(=C/c2ccc([S+](C)[O-])cc2)c2ccc(F)cc21` (some centres not stated): the CC50 in the experiment with HT-29 turned out to be 9.35 µM; with PC-3 it was 41.5 µM; in the experiment on MDA-MB-231, 24.9 µM.

As to `CNCCN(C)C(=O)C(C)C1=C(C)/C(=C/c2ccc(SC)cc2)c2ccc(F)cc21` (configuration not stated), the CC50 in the experiment with HT-29 amounted to 1.31 µM; with PC-3, 4.06 µM; in the experiment with MDA-MB-231, 3.21 µM.

As for `CSc1ccc(/C=C2/C(C)=C(C(C)C(=O)N(C)CCN(C)C(=O)[C@@H](N)C(C)C)c3cc(F)ccc32)cc1` (some centres not stated), the half-maximal cytotoxic concentration (CC50) in the experiment on HT-29 came out at 2.22 µM; in the experiment with PC-3, 4.83 µM; in the experiment with MDA-MB-231 it was 3.86 µM.

Turning to `CSc1ccc(/C=C2/C(C)=C(C(C)C(=O)N3CCN(CCCN(C)C)CC3)c3cc(F)ccc32)cc1` (configuration not stated), the CC50 was determined as 1.5 µM in the experiment with HT-29, 4.14 µM in the experiment on PC-3 and 3.06 µM in the experiment on MDA-MB-231.

On to `CC1=C(C(C)C(=O)N(C)CCN(C)C(=O)[C@@H](N)C(C)C)c2cc(F)ccc2/C1=C\c1ccc([S+](C)[O-])cc1` (some centres not stated), for which the figures for the CC50 in the experiment with HT-29, in the experiment on PC-3 and in the experiment with MDA-MB-231 were 26 µM, 28.8 µM and 47.6 µM, respectively.

Take `CNCCCN(C)C(=O)C(C)C1=C(C)/C(=C/c2ccc([S+](C)[O-])cc2)c2ccc(F)cc21` (configuration not stated): the values for the CC50 with HT-29, in the experiment on PC-3 and in the experiment on MDA-MB-231 were 10.5 µM, 33.7 µM and 36.8 µM, respectively.

Turning to `CCNCCCN(CC)C(=O)C(C)C1=C(C)/C(=C/c2ccc(SC)cc2)c2ccc(F)cc21` (configuration not stated), the CC50 with HT-29 is 2.01 µM; in the experiment with PC-3 it was 4.6 µM; in the experiment on MDA-MB-231 it was 3.97 µM.

For `CCN(CCN(C)C)C(=O)C(C)C1=C(C)/C(=C/c2ccc([S+](C)[O-])cc2)c2ccc(F)cc21` (configuration not stated), the figures for the cytotoxic concentration (CC50) in the experiment on HT-29, in the experiment on PC-3 and in the experiment with MDA-MB-231 were 9.51 µM, 28.1 µM and 32 µM, respectively.

Regarding `CC1=C(C(C)C(=O)N(C)CCCN(C)C)c2cc(F)ccc2/C1=C\c1ccc([S+](C)[O-])cc1` (configuration not stated), the CC50 in the experiment with HT-29 was 16.6 µM; with PC-3 it was more than 50 µM; in the experiment with MDA-MB-231, more than 50 µM.

Regarding `CC1=C(C(C)C(=O)N(CCCNC(C)C)C(C)C)c2cc(F)ccc2/C1=C\c1ccc([S+](C)[O-])cc1` (configuration not stated), the CC50 in the experiment on HT-29 was 7.13 µM; with PC-3, 15.7 µM; in the experiment on MDA-MB-231 it was 23 µM.

Take `CNCCCN(C)C(=O)C(C)C1=C(C)/C(=C/c2ccc(SC)cc2)c2ccc(F)cc21` (configuration not stated): the half-maximal cytotoxic concentration (CC50) in the experiment with HT-29 was determined as 1.98 µM; with PC-3 it was 4.96 µM; in the experiment on MDA-MB-231, 3.83 µM.

`CCN(CC)CCCNC(=O)C(C)C1=C(C)/C(=C/c2ccc([S+](C)[O-])cc2)c2ccc(F)cc21` (configuration not stated): the CC50 in the experiment on HT-29 is 15.5 µM; in the experiment with PC-3 it was more than 50 µM; with MDA-MB-231, more than 50 µM.

For `CSc1ccc(/C=C2/C(C)=C(C(C)C(=O)N(C)CCN(C)C(=O)C3CCCN3)c3cc(F)ccc32)cc1` (single isomer, unassigned), the figures for the cytotoxic concentration (CC50) in the experiment with HT-29, in the experiment with PC-3 and in the experiment on MDA-MB-231 were 2.06 µM, 5.21 µM and 3.99 µM, respectively.

`CC1=C(C(C)C(=O)N2CCC(N3CCCCC3)CC2)c2cc(F)ccc2/C1=C\c1ccc([S+](C)[O-])cc1` (configuration not stated): the figures for the CC50 in the experiment on HT-29, in the experiment with PC-3 and in the experiment with MDA-MB-231 were 48.4 µM, more than 50 µM and more than 50 µM, respectively.

Turning to `CC1=C(C(C)C(=O)N(CCNC(C)C)C(C)C)c2cc(F)ccc2/C1=C\c1ccc([S+](C)[O-])cc1` (configuration not stated), the values for the CC50 with HT-29, in the experiment on PC-3 and in the experiment with MDA-MB-231 were 8.06 µM, 15.2 µM and 21.3 µM, respectively.
